In patent publication US10800790B2, “Sesquiterpenoid STAT3 inhibitors” (University of Hawaii, priority 2013, dated 2020):

Columns and labels:
PTP1B = experiment: Immunoblotting of PTP1B levels in U251MG cells; format: cell-based, human; details: 5 micromolar
Description: To further investigate into the mechanism of inhibition of STAT3 induction, effects on protein tyrosine […] (PTPs) were determined. […] Instead, the potent inhibitory effects of agents (5 micromolar) countered the robust pY705STAT3 induction by orthovanadate alone.
FIGS. 13A-13C show analyses of STAT1, STAT3, STAT5, Akt, Erk1/2, JAK2, SOCS, and PTP1B activation or STAT3-EGFR association and the effects of active hirsutinolides and sodium orthovanadate. (A-C) SDS-PAGE and Western blotting analysis of whole-cell lysates of equal total protein prepared from (A) EGF-stimulated NIH3T3/hEGFR cells pre-treated with the 5 micromolar of the designated agents for 24 h and probing for pY705STAT3, STAT3, pY701 STAT1, STAT1, pY694STAT5, STAT5 or GAPDH, or the human glioma, U251MG cells treated with 5 micromolar of the designated inhibitors for (B) 0-32 h and probing for pS-Akt, Akt, pErk1/2, Erk1/2, pJAK2, JAK2, SOCS3, PTP1B, pSTAT3, STAT3, β-actin or GAPDH; or (C) 3 h in the absence or presence of increasing concentration of Na3VO4 and probing for pSTAT3, STAT3 or GAPDH/.

U251 MG cells = experiment: iTRAQ proteomics with immunoblot validation, U251 MG cells; format: cell-based, human
Description: To investigate the possibility that the hirsutinolides could induce global molecular changes in the sensitive malignant cells, lysates were prepared from U251 MG cells untreated or treated with 6 or 22 for 1 h and analyzed by isobaric peptide labeling and nanoLC-MS/MS analysis (iTRAQ) proteomics method (Ross, P. L., et al., Multiplexed protein quantitation in Saccharomyces cerevisiae using amine-reactive isobaric tagging reagents, Mol Cell Proteomics., 2004. 3: p. 1154-69), as described in the Examples section. A search was pursed of the 341,908 mass spectrometry spectra using ProteinPilot (version 4.5; Applied Biosystems) against the National Center for Biotechnology Information non-redundant reference sequence (NCBInr) human database and based on the criteria of choosing only proteins with at least 95% confidence and with a “Local False Discovery Rate” no higher than 5%, as calculated from the slope of the accumulated Decoy database hits by the PSPEP estimation. […]
Cellular samples were prepared according to the Pennsylvania STATe University College of Medicine Mass Spectrometry and Proteomics Core (MSPC) facility (Hershey, Pa.) standard protocol, adapted from the manufacturer's instructions (Applied Biosystems Sciex, Foster City, Calif.), combined with filter-aided sample preparation, as previously reported. […] For iTRAQ analysis (Ross, P. L., et al., Multiplexed protein quantitation in Saccharomyces cerevisiae using amine-reactive isobaric tagging reagents, Mol Cell Proteomics., 2004, 3: p. 1154-69), one hundred micrograms of whole-cell lysates from U251 MG cells untreated (DMSO control) or treated with 5 micromolar of compounds 22 or 6 for 1 h were independently digested, and their corresponding cellular proteins were differently labeled with 114, 115 or 117 tags, respectively, using iTRAQ reagents. […] Protein identification and quantification for iTRAQ samples were carried out using ProteinPilot™ software (version 4.5; Applied Biosystems, MDS-Sciex, Framingham, Mass.). […]

[1] = tested on: pY705STAT3 in U251MG or MDA-MB-231 cells; experiment: Immunoblotting of pY705STAT3 in treated tumor cells
Description: Positions of STATs:DNA complexes or proteins in gel are labeled; control lanes (0) represent nuclear extracts or whole-cell lysates prepared from 0.05% DMSO-treated cells. Data are representative of at least three to four independent determinations.
Lysates of equal total protein prepared in the lysis buffer (50 mM Hepes, pH 7.5, 150 mM NaCl, 2 mM EDTA, 1% Triton X-100, 0.1% SDS), were subjected to IP or Western blotting analysis. Antibodies against STAT3, pY705STAT3, Src, pY416Src, Erk1/2, and pT202/Y204Erk1/2 and GAPDH (Cell Signaling Technology, Danvers, Mass.), and anti-β-actin, and HSP105 (Santa Cruz Biotechnology, Dallas, Tex.) are from the designated sources.
Whole-cell lysates were prepared in boiling SDS sample loading buffer to extract total proteins, as reported previously. […] Nitrocellulose membranes were probed with primary antibodies, and the detection of horseradish peroxidase-conjugated secondary antibodies by enhanced chemiluminescence (Amersham) was performed. Antibodies used were monoclonal anti-pYSTAT3 and anti-STAT3 antibodies (Cell Signaling Technology, Danvers, Mass.).

pSTAT5 = experiment: Immunoblotting of EGF-induced pSTAT5 in NIH3T3/hEGFR; details: 5 micromolar
Description: To determine the specificity of agents, mouse fibroblasts over-expressing the human EGF receptor (NIH3T3/hEGFR) were treated with the compounds and stimulated with EGF.

[2] = tested on: STAT3 DNA-binding activity; experiment: STAT3 DNA-binding activity (EMSA) of nuclear extracts from treated tumor cells; details: 5 micromolar, time course
Description: Positions of STATs:DNA complexes or proteins in gel are labeled; control lanes (0) represent nuclear extracts or whole-cell lysates prepared from 0.05% DMSO-treated cells.
Nuclear extract preparations and DNA-binding/electrophoretic mobility shift assay (EMSA) were carried out as previously described (Xu, supra). Nuclear extract preparations and DNA-binding activity/electrophoretic mobility shift assay (EMSA) were carried out as previously described. U251 MG and MDA-MB-231 cells culture were pretreated with different concentrations of the compounds for the indicated period and then harvested for nuclear extract preparation and DNA-binding assay with EMSA analysis. […] Except where indicated, nuclear extracts were pre-incubated with compound for 30 min at room temperature prior to incubation with the radiolabeled probe for 30 min at 30° C. before subjecting to EMSA analysis.

## (4S,6R,E)-4,7-dihydroxy-6,10-dimethyl-2-oxo-2,4,5,6,7,8,9,10-octahydro-7,10-epoxycyclodeca[b]furan-3-yl)methyl(E)-2-methylbut-2-enoate [Compound 22]
PTP1B
  Effect on PTP1B levels: little or no effects
U251 MG cells; U251MG
  Expression of GCN1 (immunoblot): reduced expression
U251 MG cells; iTRAQ, 5 micromolar, 1 h
  Importin subunit α-2 up: 2 fold
  MAP1B down: ~2 fold
[1]; 5 micromolar, 0-24 h, U251MG or MDA-MB-231, Table 1/FIG. 2 numbering
  Effect on pY705STAT3 / STAT3 activity (immunoblot), in words: early inhibition at 15-30 min
[1]; U251MG, 5 micromolar compound, 10-300 micromolar orthovanadate, 3 h
  pY705STAT3 inhibition in combination with sodium orthovanadate: failed to overcome the inhibitory effect
pSTAT5
  Effect on EGF-induced pSTAT5: no effects
[2]
  Inhibition of STAT3 DNA-binding activity in treated cells (EMSA): early inhibition at 15-30 min
